One data set deals with HeLa cells. Put plainly: Localization assay: cellular uptake and organellar localization by confocal microscopy. The class given is cell-based, human. The following applies: 5 µM, 5 h, 37 °C; for Cellular uptake efficiency: confocal microscopy of Rhodamine B fluorescence (Exc 532 nm, Em 570–620 nm); for Organellar localization (mitochondria): counterstaining with MitoTracker Green, confocal microscopy. The procedure: As 15-Rhod to 24-Rhod were not toxic at 5 µM the following transport experiments were carried out using this concentration. To study their cellular uptake and organellar localization, HeLa cells were treated with 5 µM of the cyclic conjugates 15-Rhod to 24-Rhod for 5 h and eventually imaged using confocal microscopy (for experimental details, see supplemental Material).
FIGURE 4 Localization of the macrocyclic conjugates 15-Rhod to 24-Rhod in HeLa cells. After incubation with a 5.0 µM solution of the respective transporters for 5 h, the cellular uptake was monitored via fluorescent confocal microscopy (Rhodamine B labeled hybrids: λ Exc = 532 nm, λ Em = 570–620 nm; MitoTracker® Green: λ Exc = 488 nm, λ Em = 490–540 nm; Hoechst 33,342: λ Exc = 405 nm, λ Em = 430–490 nm). Counterstaining with MitoTracker® Green visualized mitochondria (green). Staining with 2 μg/ml Hoechst 33,342 indicated nuclei (blue). Scale bar: 10 µm.
In an 8-well chamber slide (µ-Slide 8-Well ibidiTreat, ibidi®), 1.0 × 10^4 HeLa cells per well were cultivated for 16 h. The cyclic hybrids were diluted with DMEM to yield a 5 µM concentration. The cells were treated with the hybrids for 5 h at 37 °C. To monitor the intracellular localization, the cells were counterstained with MitoTracker® (Invitrogen) and 2 µg/mL Hoechst 33342. After washing with DPBS (3 ×), the luminescence was monitored via life-cell imaging using a Leica TCS-SPE confocal microscope (DM2500 inverse microscope, 8 Bit resolution, 1024 × 1024 pixels), equipped with a 1 Airy pinhole aperture (111.5 µm), ACS APO 63.0x/1.30 OIL UV and 40x/1.14 OIL UV objectives and the images were processed by the Leica Application Suite (LAS-AF) Version 2.1.2 build 4530 software. Images were taken with a scanning frequency of 400 Hz. Background noise was averaged by an eight-fold repetition of the scan process. The cyclic hybrids were excited at 532 nm, MitoTracker® Green at 488 nm, and Hoechst 33342 at 405 nm. The exposure was set to minimize oversaturated pixels in the final images. Fluorescence emission was measured at 570–620 nm for the detection of rhodamine B labeled hybrids, at 490–540 nm for the detection of mitochondria, and 430–490 nm for the detection of nuclei.

The nature of a further data set: in vitro. The class given is cell-based. The following applies: human. The protocol: The cytotoxicity of the macrocyclic hybrids 15–24, as well as their conjugates 15-Rhod to 24-Rhod, was examined using a standard MTT assay in human epithelial cervix carcinoma (HeLa) cells. […] ([Mosmann, 1983]; [Tolosa et al., 2015]) After treatment of HeLa cells with different concentrations of the respective macrocycles 15–24 (0.50─50 µM) for 72 h, no significant cytotoxic effects were observed. […] As shown by many research groups that Rhodamine B by itself is not efficiently entering the cells showing therefore an LD50 > 50 μM, we assume that this the toxicity of the Rhodamine moiety might be higher when increasingly localizing in the mitochondria to a higher amount.
In a 96-well plate (Corning® Costar® 3596 96-Well Cell Culture Cluster), 1.0 × 10^4 HeLa-cells per well of a 96 well plate were cultivated for 16 h. Stock solutions of the single compounds in dimethylsulfoxide were diluted to 0.50 µm, 5.00 µm, and 50.0 µm with cell culture medium (DMEM + 10% FBS + 1% P/S) to ensure a final concentration of DMSO below 0.5%. 100 µL of the prepared DMEM diluted compounds were added to each well and the cells were incubated for 72 h. All experiments were performed in triplicates. Cells that were solely treated with the culture medium containing 0.5% of DMSO served as a negative control. After incubation, the positive control (cells in DMSO plus 0.5% DMSO) was treated with 1% Triton-X. To determine the viability of the cells 20 µL of a freshly prepared solution of 3-(4,5-dimethylthiazol-2-yl)-2,5-diphenyltetrazolium bromide (MTT, 2.73 mg/mL, Sigma-Aldrich®) in culture medium were added to each well and incubated at 37 °C for 4 h. The reaction was stopped using 100 µL of Solubilization Solution / Stop Mix (CellTiter 96® Non-Radioactive Cell Proliferation Assay, Promega). After 24 h, the absorption (A) of every well at 595 nm was monitored using a 96-well plate reader (Ultra Microplate Reader ELx808, Biotech Instruments Inc.).

Entries after “also recorded” stand apart in the source; their conditions may differ. Non-standard residues stand in square brackets, D forms with d. Residues, ends and D or L forms follow the SMILES beside them. *: point of attachment. RhodamineB = CCN(CC)c1ccc2c(-c3ccccc3C(=O)*)c3ccc(=[N+](CC)CC)cc-3oc2c1; Gly(Nα-4-Cl-benzyl) = O=C(O)CNCc1ccc(Cl)cc1; Nphe = O=C(O)CNCc1ccccc1; NBuGly = CCCCNCC(=O)O; Nlys = NCCCCNCC(=O)O

As to `CCN(CC)c1ccc2c(-c3ccccc3C(=O)NCCCCN3CC(=O)N(Cc4ccc(Cl)cc4)CC(=O)N(Cc4ccc(Cl)cc4)CC(=O)N(Cc4ccc(Cl)cc4)CC(=O)N[C@@H](Cc4ccccc4)C(=O)N[C@@H](Cc4ccccc4)C3=O)c3ccc(=[N+](CC)CC)cc-3oc2c1` [23-Rhod, cyclo-(l-Phe-N1ph^pCl-N1ph^pCl-N1ph^pCl-N4am(Rhod)-l-Phe)] (cyclo(F[Nlys](RhodamineB)[Gly(Nα-4-Cl-benzyl)][Gly(Nα-4-Cl-benzyl)][Gly(Nα-4-Cl-benzyl)]F)), in the data set on HeLa cells, the Cellular uptake efficiency result was “significantly less efficient” and the “Organellar localization (mitochondria)” value is given as “Mitochondrial accumulation”. The IC50 – broadly, the concentration that gives 50% inhibition – at 72 h in “in vitro” is 6 µM.

As to `NCCCCN1CC(=O)N[C@@H](Cc2ccccc2)C(=O)N[C@@H](Cc2ccccc2)C(=O)N(Cc2ccc(Cl)cc2)CC(=O)N(Cc2ccc(Cl)cc2)CC(=O)N(Cc2ccc(Cl)cc2)CC1=O` [compound 23, cyclo-(l-Phe-N1ph^pCl-N1ph^pCl-N1ph^pCl-N4am-l-Phe)] (cyclo(FF[Gly(Nα-4-Cl-benzyl)][Gly(Nα-4-Cl-benzyl)][Gly(Nα-4-Cl-benzyl)][Nlys])), the midpoint of inhibition in “in vitro”, the IC50 at 72 h, lay at 20 µM.

For `NCCCCN1CC(=O)N[C@@H](Cc2ccccc2)C(=O)N[C@@H](Cc2ccccc2)C(=O)N(Cc2ccccc2)CC(=O)N(Cc2ccccc2)CC(=O)N(Cc2ccccc2)CC1=O` [compound 22, cyclo-(l-Phe-N1ph-N1ph-N1ph-N4am-l-Phe)] (cyclo(FF[Nphe][Nphe][Nphe][Nlys])), the concentration for half-maximal inhibition (IC50) at 72 h in the data set “in vitro” is more than 50 µM.

Consider `CCCCN1CC(=O)N(Cc2ccccc2)CC(=O)N(CCCCNC(=O)c2ccccc2-c2c3ccc(=[N+](CC)CC)cc-3oc3cc(N(CC)CC)ccc23)CC(=O)N[C@@H](Cc2ccccc2)C1=O` [17-Rhod, cyclo-(l-Phe-N3m-N1ph-N4am(Rhod))] (cyclo(F[NBuGly][Nphe][Nlys](RhodamineB))), for which the IC50 at 72 h in “in vitro” is more than 50 µM.

Take `NCCCC[C@@H]1NC(=O)CN(Cc2ccccc2)C(=O)CN(Cc2ccccc2)C(=O)[C@H](Cc2c[nH]c3ccccc23)NC1=O` [compound 19, cyclo-(l-Trp-N1ph-N1ph-l-Lys)] (cyclo(KW[Nphe][Nphe])): the IC50 at 72 h in “in vitro” is more than 50 µM.

`NCCCCN1CC(=O)N(Cc2ccccc2)CC(=O)N[C@@H](Cc2ccc(O)cc2)C(=O)N[C@@H](Cc2ccccc2)C1=O` [compound 18, cyclo-(l-Phe-N4am-N1ph-l-Tyr)] (cyclo(F[Nlys][Nphe]Y)): in the data set “in vitro”, the IC50 at 72 h is more than 50 µM.

Take `CCCCN1CC(=O)N(Cc2ccccc2)CC(=O)N(CCCCN)CC(=O)N[C@@H](Cc2ccccc2)C1=O` [compound 17, cyclo-(l-Phe-N3m-N1ph-N4am)] (cyclo(F[NBuGly][Nphe][Nlys])): the half-inhibitory concentration (IC50) at 72 h in “in vitro” is more than 50 µM.

In the data set “in vitro”, `NCCCCN1CC(=O)N[C@@H](Cc2ccccc2)C(=O)N(Cc2ccccc2)CC(=O)N(Cc2ccccc2)CC1=O` [compound 15, cyclo-(l-Phe-N1ph-N1ph-N4am)] (cyclo(F[Nphe][Nphe][Nlys])) yielded a 50% inhibitory concentration (IC50) at 72 h of more than 50 µM.

For `CCN(CC)c1ccc2c(-c3ccccc3C(=O)NCCCCN3CC(=O)N[C@@H](Cc4ccc(O)cc4)C(=O)N[C@@H](Cc4ccccc4)C(=O)N(Cc4ccccc4)CC3=O)c3ccc(=[N+](CC)CC)cc-3oc2c1` [18-Rhod, cyclo-(l-Phe-N4am(Rhod)-N1ph-l-Tyr)] (cyclo(F[Nphe][Nlys](RhodamineB)Y)), in the data set with HeLa cells, the Cellular uptake efficiency result is reported as “not internalized”. The IC50 at 72 h in “in vitro” is 33 µM.

Turning to `CCN(CC)c1ccc2c(-c3ccccc3C(=O)NCCCCN3CC(=O)N(Cc4ccccc4)CC(=O)N[C@@H](Cc4ccccc4)C(=O)N(Cc4ccc(Cl)cc4)CC3=O)c3ccc(=[N+](CC)CC)cc-3oc2c1` [16-Rhod, cyclo-(l-Phe-N1ph^pCl-N4am(Rhod)-N1ph)] (cyclo(F[Gly(Nα-4-Cl-benzyl)][Nlys](RhodamineB)[Nphe])), the half-maximal inhibitory concentration (IC50) at 72 h in “in vitro” came out at 30 µM. In other words, the double-digit micromolar range.

Molecule `NCCCC[C@@H]1NC(=O)CN(Cc2ccc(Cl)cc2)C(=O)CN(Cc2ccc(Cl)cc2)C(=O)[C@H](Cc2c[nH]c3ccccc23)NC1=O` [compound 20, cyclo-(l-Trp-N1ph^pCl-N1ph^pCl-l-Lys)] (cyclo([Gly(Nα-4-Cl-benzyl)][Gly(Nα-4-Cl-benzyl)]KW)) gave an IC50 at 72 h in “in vitro” of more than 50 µM.

As for `CCN(CC)c1ccc2c(-c3ccccc3C(=O)NCCCCN3CC(=O)N[C@@H](Cc4ccccc4)C(=O)N(Cc4ccccc4)CC(=O)N(Cc4ccccc4)CC3=O)c3ccc(=[N+](CC)CC)cc-3oc2c1` [15-Rhod, cyclo-(l-Phe-N1ph-N1ph-N4am(Rhod))] (cyclo(F[Nphe][Nphe][Nlys](RhodamineB))), in “in vitro”, the 50% inhibitory concentration (IC50) at 72 h is more than 50 µM.

Consider `CCN(CC)c1ccc2c(-c3ccccc3C(=O)NCCCC[C@@H]3NC(=O)CN(Cc4ccc(Cl)cc4)C(=O)CN(Cc4ccc(Cl)cc4)C(=O)[C@H](Cc4c[nH]c5ccccc45)NC3=O)c3ccc(=[N+](CC)CC)cc-3oc2c1` [20-Rhod, cyclo-(l-Trp-N1ph^pCl-N1ph^pCl-l-Lys(Rhod))] (cyclo([Gly(Nα-4-Cl-benzyl)][Gly(Nα-4-Cl-benzyl)]K(RhodamineB)W)), for which the 50% inhibitory concentration (IC50) at 72 h in “in vitro” was more than 50 µM.

Regarding `NCCCCN1CC(=O)N(Cc2ccccc2)CC(=O)N[C@@H](Cc2ccccc2)C(=O)N(Cc2ccc(Cl)cc2)CC1=O` [compound 16, cyclo-(l-Phe-N1ph^pCl-N4am-N1ph)] (cyclo(F[Gly(Nα-4-Cl-benzyl)][Nlys][Nphe])), the IC50 at 72 h in the data set “in vitro” was more than 50 µM.

Turning to `CCCCN1CC(=O)N(Cc2ccccc2)CC(=O)N(CCCCN)CC(=O)N[C@@H](Cc2ccccc2)C(=O)N[C@@H](Cc2ccccc2)C(=O)N(CCCC)CC1=O` [compound 24, cyclo-(l-Phe-N3m-N3m-N1ph-N4am-l-Phe)] (cyclo(FF[NBuGly][NBuGly][Nphe][Nlys])), in the data set “in vitro”, the IC50 at 72 h is more than 50 µM.

On to `CCCCN1CC(=O)N[C@@H](Cc2ccccc2)C(=O)N[C@@H](Cc2ccccc2)C(=O)N(CCCCNC(=O)c2ccccc2-c2c3ccc(=[N+](CC)CC)cc-3oc3cc(N(CC)CC)ccc23)CC(=O)N(Cc2ccccc2)CC(=O)N(CCCC)CC1=O` [24-Rhod, cyclo-(l-Phe-N3m-N3m-N1ph-N4am(Rhod)-l-Phe)] (cyclo(F[Nlys](RhodamineB)[Nphe][NBuGly][NBuGly]F)), for which, in the data set on HeLa cells, the Cellular uptake efficiency entry is recorded as “efficiently taken up; also recorded: high cellular uptake efficiency” and the “Organellar localization (mitochondria)” value is recorded as “mitochondrial specificity”. Besides, in the data set “in vitro”, the IC50 at 72 h is 26 µM.

`CCN(CC)c1ccc2c(-c3ccccc3C(=O)NCCCC[C@@H]3NC(=O)CN(Cc4ccccc4)C(=O)CN(Cc4ccccc4)C(=O)[C@H](Cc4c[nH]c5ccccc45)NC3=O)c3ccc(=[N+](CC)CC)cc-3oc2c1` [19-Rhod, cyclo-(l-Trp-N1ph-N1ph-l-Lys(Rhod))] (cyclo(K(RhodamineB)W[Nphe][Nphe])) yielded an IC50 at 72 h in “in vitro” of 34 µM.

In the data set “in vitro”, `CCCCN1CC(=O)N[C@@H](CCCCN)C(=O)N[C@@H](Cc2ccc(O)cc2)C(=O)N(CCCC)CC1=O` [compound 21, cyclo-(l-Tyr-N3m-N3m-l-Lys)] (cyclo(KY[NBuGly][NBuGly])) showed an IC50 at 72 h of more than 50 µM.

`CCCCN1CC(=O)N[C@@H](CCCCNC(=O)c2ccccc2-c2c3ccc(=[N+](CC)CC)cc-3oc3cc(N(CC)CC)ccc23)C(=O)N[C@@H](Cc2ccc(O)cc2)C(=O)N(CCCC)CC1=O` [21-Rhod, cyclo-(l-Tyr-N3m-N3m-l-Lys(Rhod))] (cyclo(K(RhodamineB)Y[NBuGly][NBuGly])): inhibition in the data set “in vitro” was half-maximal at 36 µM (IC50 at 72 h). This lies in the double-digit micromolar range.

Values taken from PMC8267177, “Cyclic Peptoid-Peptide Hybrids as Versatile Molecular Transporters” (Frontiers in Chemistry, 2021).
